Source: publication PMC6917776, “Discovery of a chemical probe for PRDM9” (Nature Communications, 2019)

System: H3K4me3 at known PRDM9 binding loci and control TSS loci
Assay: ChIP-qPCR of H3K4me3 in PRDM9-transfected HEK293T cells
Format: cell-based, human
Settings: Replicate 1; for 2^-dCq (H3K4me3 ChIP relative to H3 ChIP): Figure 7 C, Antibody H3K4me3; for 2^-dCq: H3K4me3 ChIP normalised to H3; for dCq (IP-Input): H3K4me3 antibody
Method: ChIP-qPCR assays were then conducted on known PRDM9 binding loci[26]. Ectopic expression of PRDM9^WT increased trimethylation of H3K4 (H3K4me3) at previously described PRDM9-specific intragenic and intergenic regions[26] (Fig. 7; Supplementary Fig. 12). […] The observed increases in H3K4me3 levels at intragenic and intergenic regions are therefore due directly to PRDM9 PR domain-dependent methylation activity, rather than through recruitment of other H3K4 methyltransferases or other indirect mechanisms.
ChIP qPCR analyses of H3K4me3 methylation levels of known PRDM9-bound loci and control loci. […] Concentrations used (µM) are indicated below each plot. (a–d) represent reported loci of PRDM9 methylation; (e, f) are transcriptional start sites (TSSs) which are not known loci of PRDM9 methylation. Data are normalized to total H3 and are presented as the mean ± upper and lower limits from two replicates. Representative plots of two independent experiments are shown in this figure. The coordinates and the genomic features associated with the assayed loci are indicated above each plot. Left Tailed Student's t-tests were performed by comparing DMSO (0 µM) treated cells to compound treated cells that have been transfected with the same plasmids. *p-value < 0.05 and **p-value < 0.01. Note that here we show a representative of two independent experiments (mean ± s.d of technical replicates) for our ChIP-qPCR experiments. Data obtained using this technique are inherently noisy due to stochastic differences in gene activity/histone positioning. Data are thus typically presented as representative rather than averaged. Source data are provided as a Source Data file.
HEK293T cells were transfected with 37.5 μg empty pcDNA3.1(+) vector (Invitrogen), or the same vector expressing either wild-type PRDM9 (PRDM9^WT) or a catalytically dead PRDM9 mutant (PRDM9^Mut) and 75 μL of Lipofectamine 2000 (Invitrogen) in 6 mL of Opti-MEM (GIBCO) for 48 h. […] ChIP assays were then performed as previously described. Briefly, cells were fixed in 1% formaldehyde and the fixation reaction was quenched in a final concentration of 0.1 M glycine. Cell pellets were first lysed in LB1 (50 mM HEPES-KOH pH 7.5, 140 mM NaCl, 1 mM EDTA, 10% Glycerol, 0.5% Igepal, 0.25% TritonX), washed once in LB2 Buffer (10 mM Tris-HCl pH 8, 200 mM NaCl, 1 mM EDTA, 0.5 mM EGTA) and finally sonicated in LB3 buffer (10 mM Tris-HCl pH 8, 100 mM NaCl, 1 mM EDTA, 0.5 mM EGTA, 0.1% Sodium deoxycholate, 0.5% N-laurosylsarcosine) using a bioruptor (Diagenode). Thereafter, 50 μg of chromatin was subjected to ChIP using the following antibodies purchased from Abcam: α-H3K4me3 (1:200, ab8580, lot:GR3207339-1) and α-H3 (1:250, ab1791, lot:GR300978-4). After extensive washing in RIPA wash buffer (50 mM HEPES-KOH pH 7.6, 100 mM LiCl, 1 mM EDTA, 1% Igepal, 0.7% Sodium Deoxycholate), DNA was eluted from beads. The eluted DNA was treated with RNase A and Proteinase K and purified using the QIAGEN PCR purification kit. qPCR was then carried out targeting the indicated loci (Supplementary Table 3). Upper and lower limits were defined by |2^−(dCq±s) − 2^−(∆Cq)|, where s = √((Standard deviation of Input Cq)^2 + (Standard deviation of Target Cq)^2). […]
formation. ChIP qPCR analyses of H3K4me3 methylation levels at known PRDM9-bound and control loci. Cells transfected with empty vector (negative control) or vectors overexpressing either wild-type PRDM9 (PRDM9 WT) or catalytically dead PRDM9 (PRDM9 MUT) were […]
Panels a-d represent reported loci of […]
(1 picture or pasted object on this page, not shown here)
PRDM9 methylation; e-f are TSSs which are not known sites of PRDM9 methylation. Data are normalized to total H3 and are presented as the mean ± upper and lower limits from two […]

[1] = chr2:40281930-40282015 Intragenic (SLC8A1-AS1), Empty Vector
[2] = chr2:40281930-40282015 Intragenic (SLC8A1-AS1), PRDM9
[3] = chr2:40281930-40282015 Intragenic (SLC8A1-AS1), PRDM9_Cat.Dead
[4] = chr2:128811847-128811944 (Intergenic), Empty Vector
[5] = chr2:128811847-128811944 (Intergenic), PRDM9
[6] = chr2:128811847-128811944 (Intergenic), PRDM9_Cat.Dead
[7] = chr3:165514798-165514911 Intragenic (BCHE), Empty Vector
[8] = chr3:165514798-165514911 Intragenic (BCHE), PRDM9
[9] = chr3:165514798-165514911 Intragenic (BCHE), PRDM9_Cat.Dead
[10] = chr8:49932778-49932856 (Intergenic), Empty Vector

COc1cc(OC)cc(-c2noc(N3CCN(C)C4(CCN(c5ccnc(C)c5)CC4)C3)n2)c1 [MRK-740]
2^-dCq (H3K4me3 ChIP relative to H3 ChIP) (chr2:40281930-40282015 Intragenic (SLC8A1-AS1), Plasmid Empty Vector, Drug Conc. 2.5): 0.4152 | 2^-dCq (H3K4me3 ChIP relative to H3 ChIP) (chr2:40281930-40282015 Intragenic (SLC8A1-AS1), Plasmid Empty Vector, Drug Conc. 5): 0.3238 | 2^-dCq (H3K4me3 ChIP relative to H3 ChIP) (chr2:40281930-40282015 Intragenic (SLC8A1-AS1), Plasmid Empty Vector, Drug Conc. 10): 0.507 | 2^-dCq (H3K4me3 ChIP relative to H3 ChIP) (chr2:40281930-40282015 Intragenic (SLC8A1-AS1), Plasmid PRDM9WT, Drug Conc. 2.5): 3.2145 | 2^-dCq (H3K4me3 ChIP relative to H3 ChIP) (chr2:40281930-40282015 Intragenic (SLC8A1-AS1), Plasmid PRDM9WT, Drug Conc. 5): 2.572 | 2^-dCq (H3K4me3 ChIP relative to H3 ChIP) (chr2:40281930-40282015 Intragenic (SLC8A1-AS1), Plasmid PRDM9WT, Drug Conc. 10): 2.028 | 2^-dCq [1]: 0.4145 | 2^-dCq [2]: 3.496 | 2^-dCq [3]: 0.3605 | 2^-dCq [4]: 0.4852 | 2^-dCq [5]: 2.263 | 2^-dCq [6]: 0.5507 | 2^-dCq [7]: 0.3297 | 2^-dCq [8]: 5.1 | 2^-dCq [9]: 0.2515 | 2^-dCq [10]: 0.5103 | 2^-dCq (chr8:49932778-49932856 (Intergenic), PRDM9): 4.604 | 2^-dCq (chr8:49932778-49932856 (Intergenic), PRDM9_Cat.Dead): 0.4888 | 2^-dCq (chr12:6643945-6644023 TSS (GAPDH), Empty Vector): 45.392 | 2^-dCq (chr12:6643945-6644023 TSS (GAPDH), PRDM9): 42.4818 | 2^-dCq (chr12:6643945-6644023 TSS (GAPDH), PRDM9_Cat.Dead): 88.4248 | 2^-dCq (chr19:8510167-8510261 TSS (HNRNPM), Empty Vector): 50.4703 | 2^-dCq (chr19:8510167-8510261 TSS (HNRNPM), PRDM9): 42.5896 | 2^-dCq (chr19:8510167-8510261 TSS (HNRNPM), PRDM9_Cat.Dead): 88.2214 | dCq (IP-Input) [1]: 1.27 | dCq (IP-Input) [2]: -1.806 | dCq (IP-Input) [3]: 1.472 | dCq (IP-Input) [4]: 1.0432 | dCq (IP-Input) [5]: -1.178 | dCq (IP-Input) [6]: 0.8606 | dCq (IP-Input) [7]: 1.601 | dCq (IP-Input) [8]: -2.351 | dCq (IP-Input) [9]: 1.992 | dCq (IP-Input) [10]: 0.9707
